Reference: US12387622B2, “Systems and methods for modeling veins and associated blood vessel components” (The Texas A&M University System, priority 2019, dated 2025)

What was measured:
[1] = system: thrombi formation within venous valves 50A-50C; test: Vein-on-a-chip: anticoagulant-treated blood perfused through TNF-α treated, HUVEC-lined venous valves; platelets and fibrin imaged; type: cell-based, human; conditions: for thrombi at cusps 52 and at the microfluidic channel 44B: DOAC dosage increased to 500 ng/ml; for thrombi at cusps 52 and at the microfluidic channel 44B / fibrin rich clots in cusps 52 / thrombi in the luminal portion of the microfluidic model 40: venous valve 50B treated with TNF-α
Method: In this embodiment, to form microfluidic chip 40, microelectronic and semiconductor fabrication techniques were used to develop an SU-8 photoresist-based master mold. Particularly, computational fluid dynamics simulations were carried out to arrive at the open venous valve designs (e.g., venous valves 50A-50C) which contained recirculations as observed in venous valve cusps in vivo. The embodiments of the finalized venous valve designs shown in FIGS. 3-5 were developed using solid modeling computer-aided design (CAD) software (e.g., the SolidWorks™ software package published by Dassault Systemes) and a photomask of the finalized valve designs was used to fabricate the master mold using epoxy-based negative photoresist—SU-8 on a silicon wafer in this embodiment. In this embodiment for forming microchannels 44A-44C, once the master molds were fabricated, the wafers were treated with Silane, and Polydimethylsiloxane (PDMS) having an […] to crosslinker ratio of about 10:1 was poured into the master mold. In this embodiment, once the PDMS was set, the PDMS was striped and bonded to a PDMS coated glass slide to form microchannels 44A-44C, each microchannel 44A-44C having PDMS coated on each side thereof. Additionally, PDMS, being hydrophobic, was treated with plasma and then silanized with (3-aminopropyl) triethoxylsilane (APTES) to make the PDMS hydrophilic. In this embodiment, microchannels 44A-44C were then filled with type-I rat tail collagen of about 200 micrograms per milliliter (ug/ml) and fibronectin of about 50 ug/ml to form an extracellular matrix (ECM) configured to support endothelial cell growth on the walls of each microchannel 44A-44C.
(§1) In this embodiment for forming microchannels 44A-44C, human umbilical vein endothelial cells (HUVECs) were cultured over a layer of the ECM coated on microchannels 44A-44C; however, in other embodiments, human or animal cell lines other than HUVECs may also be used in the formation of microchannels 44A-44C. In this embodiment, HUVECs, a human primary cell line derived from the human umbilical vein, were acquired and seeded on T75 flasks coated with type I rat tail collagen of about 5 micrograms (μg) per 5 cm^2, the HUVECs being seeded at about 50,000 cells per flask. In this embodiment, the endothelial growth media (EGM) (EGM-2 MV, promocell in this embodiment) disposed in the flasks were replaced every two days, and once the flasks were 80% confluent, the HUVECs were detached from the flasks and seeded on microchannels 44A-44C with about 20-30 microliters (μl) of cell suspension having cell density of about 1e7 cells per milliliter (ml). The cell suspension was passed through a cell strainer to remove debris and cell aggregates that were larger than about 40 μm in diameter. In this embodiment, microchannels 44A-44C were then first filled with cell suspension and kept upside down for about 20 minutes to seed the top face of microchannels 44A-44C, and then microchannels 44A-44C were again filled with cell suspension and kept upright for 20 minutes to seed the bottom faces of microchannels 44A-44C.
To induce activation, the vascular lumen coated to microchannels 44A-44C was treated with the tumor necrosis factor (TNF) TNF-α at about 0-200 nanograms per milliliter (ng/ml) in this embodiment. Particularly, the seeded microchannels 44A-44C were perfused with media at about 1 ul/min for about 24 hours. Confluent lumen was formed on the walls of microchannels 44A-44C at the end of 24 hours. Additionally, in this embodiment, different doses TNF-α, a cytokine, was introduced into the confluent lumen of the channels for about 18 hours to observe the dose dependent inflammation of the endothelial cells in the straight sections of microchannels 44A-44C and venous valve cusps of venous valves 50A-50C.
In this embodiment of the formation of microchannels 44A-44C, to evaluate role of hypoxia, microfluidic chip 40 was incubated at 3.9% oxygen. […]

[2] = system: human umbilical vein endothelial cells (HUVECs); test: Vein-on-a-chip: TNF-α stimulation of HUVEC lumen followed by blood perfusion at venous shear; type: cell-based
Method: as §1, with “The cell suspension was passed through a cell strainer to remove debris and cell aggregates that were larger than about 40 μm in diameter. In this embodiment, microchannels 44A-44C were then first filled with cell suspension and kept upside down for about 20 minutes to seed the top face of microchannels 44A-44C, and then microchannels 44A-44C were again filled with cell suspension and kept upright for 20 minutes to seed the bottom faces of microchannels 44A-44C.” left out
In this embodiment of the formation of microchannels 44A-44C, to evaluate role of hypoxia, microfluidic chip 40 was incubated at 3.9% oxygen. […] Fluorescently labelled platelets and fibrin were visualized and quantitated via microscopes positioned adjacent microchannels 44A-44C. Additionally, in this embodiment, typical vascular identity and adhesion markers were measured through immunohistochemistry. […]

[3] = standard dosage 50 ng/ml of Apixaban in blood
[4] = standard dosage 100 ng/ml of Rivaroxaban in blood

COc1ccc(-n2nc(C(N)=O)c3c2C(=O)N(c2ccc(N4CCCCC4=O)cc2)CC3)cc1 [Apixaban]
thrombi at cusps 52 and at the microfluidic channel 44B [1]: thrombi detected | fibrin rich clots in cusps 52 [1, 3]: fibrin rich clots were present | thrombi in the luminal portion of the microfluidic model 40 [1, 3]: unobservable thrombi

O=C(NC[C@H]1CN(c2ccc(N3CCOCC3=O)cc2)C(=O)O1)c1ccc(Cl)s1 [Rivaroxaban]
thrombi at cusps 52 and at the microfluidic channel 44B [1]: thrombi detected | fibrin rich clots in cusps 52 [1, 4]: fibrin rich clots were present | thrombi in the luminal portion of the microfluidic model 40 [1, 4]: unobservable thrombi

Heparin
thrombi formation within venous valves 50A-50C ([1]; addition of heparin in blood, dose dependent): decreased the thrombi formation | fibrin in cusps 52 ([1]; higher Heparin dosage 0.50 IU/ml, TNF-α 5 ng/ml): only reduced at the higher Heparin dosage | fibrin within microfluidic model 40 ([1]; lower dose of Heparin (approximately 0.25 IU/ml), TNF-α 5 ng/ml): reduction in fibrin resulted | thrombi formed in microfluidic channels 44A-44C ([1]; when the dosage of Heparin was increased (0.25 to 0.50 IU/ml), valve 50B treated with TNF-α 5 ng/ml, FIG. 38): reduced significantly

TNF-α
thrombi in venous valves upon stimulation of HUVECs ([2]; blood perfused at venous shear of about 0.5 dynes/cm^2, no thrombi with untreated HUVECs): thrombi were detected | clot formation in lumen treated with varying doses of cytokine ([2]; blood perfused at venous shear rates): fibrin rich clots were predominantly formed in the venous valve cusps
